# Test results reported in patent publication US20260199255A1, “LIPID COMPOUNDS AND METHODS OF MAKING AND USE THEREOF” (Ohio State Innovation Foundation, priority 2022, published 2026).
# Key:
# Format in all cases: cell-based
# Hep3B cell line = experiment: luciferase mRNA delivery in the Hep3B cell line (in vitro LNP screening); settings: LNPs of bile acid derived lipid, DOPE, cholesterol and DMG-PEG; mRNA-encoding firefly luciferase; Hep3B cell line (FIG. 2)
# Procedure: (§1) Lipid nanoparticles (LNPs) with synthesized bile acid derived lipids, DOPE, cholesterol and DMG-PEG were prepared and screened in various cell lines using mRNA-encoding firefly luciferase (FIGS. 2-4).
# JAWS2 cell line = experiment: luciferase mRNA delivery in the JAWS2 cell line (in vitro LNP screening); settings: LNPs of bile acid derived lipid, DOPE, cholesterol and DMG-PEG; mRNA-encoding firefly luciferase; JAWS2 cell line (FIG. 3)
# Procedure: as §1
# C2C12 cell line = experiment: luciferase mRNA delivery in the C2C12 cell line (in vitro LNP screening); settings: LNPs of bile acid derived lipid, DOPE, cholesterol and DMG-PEG; mRNA-encoding firefly luciferase; C2C12 cell line (FIG. 4)
# Procedure: as §1
Structure (SMILES),mRNA delivery efficiency (Hep3B cell line),mRNA delivery efficiency (JAWS2 cell line),mRNA delivery efficiency (C2C12 cell line)
CCCCCCCCCCCCN(CCCCCCCCCCCC)CCCCCCNC(=O)CC[C@@H](C)[C@H]1CC[C@H]2[C@@H]3CC[C@@H]4C[C@H](O)CC[C@]4(C)[C@H]3C[C@H](O)[C@]12C [BAL6],more effective mRNA delivery efficiency than other LNPs,–,–
CCCCCCCCCCCCN(CCCCCCCCCCCC)CCN(CCCCCCCCCCCC)CCNC(=O)CC[C@@H](C)[C@H]1CC[C@H]2[C@@H]3CC[C@@H]4C[C@H](O)CC[C@]4(C)[C@H]3C[C@H](O)[C@]12C [BAL7],–,high mRNA delivery efficiency,high mRNA delivery efficiency
CCCCCCCCCCCCN(CCCCCCCCCCCC)CCN(CCCCCCCCCCCC)CCNC(=O)CC[C@@H](C)[C@H]1CC[C@H]2[C@@H]3[C@H](O)C[C@@H]4C[C@H](O)CC[C@]4(C)[C@H]3CC[C@]12C [BAL11],–,high mRNA delivery efficiency,high mRNA delivery efficiency
